From US20210395256A1, “TYROSINE KINASE INHIBITORS, COMPOSITIONS AND METHODS THERE OF” (Betta Pharmaceuticals Co., Ltd., priority 2018, published 2021)

Biological target: TrkA kinase (Homo sapiens, UniProt P04629)
Experiment: TrkA kinase assay (mobility shift assay)
Assay type: biochemical
Details: class symbols; read-out: Trk A Kinase IC50
Outline: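 Caliper mobility-shift readout of FAM-labelled peptide conversion by TrkA in 50 mM HEPES pH 7.5, 0.0015% Brij-35, with ATP; enzyme preincubated 10 min with compound (10-point dilution), reaction at 28 °C, EDTA stop. Inhibition relative to DMSO and no-enzyme controls; IC50 by four-parameter fit.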

TrkA kinase, sequence (P04629 33-796): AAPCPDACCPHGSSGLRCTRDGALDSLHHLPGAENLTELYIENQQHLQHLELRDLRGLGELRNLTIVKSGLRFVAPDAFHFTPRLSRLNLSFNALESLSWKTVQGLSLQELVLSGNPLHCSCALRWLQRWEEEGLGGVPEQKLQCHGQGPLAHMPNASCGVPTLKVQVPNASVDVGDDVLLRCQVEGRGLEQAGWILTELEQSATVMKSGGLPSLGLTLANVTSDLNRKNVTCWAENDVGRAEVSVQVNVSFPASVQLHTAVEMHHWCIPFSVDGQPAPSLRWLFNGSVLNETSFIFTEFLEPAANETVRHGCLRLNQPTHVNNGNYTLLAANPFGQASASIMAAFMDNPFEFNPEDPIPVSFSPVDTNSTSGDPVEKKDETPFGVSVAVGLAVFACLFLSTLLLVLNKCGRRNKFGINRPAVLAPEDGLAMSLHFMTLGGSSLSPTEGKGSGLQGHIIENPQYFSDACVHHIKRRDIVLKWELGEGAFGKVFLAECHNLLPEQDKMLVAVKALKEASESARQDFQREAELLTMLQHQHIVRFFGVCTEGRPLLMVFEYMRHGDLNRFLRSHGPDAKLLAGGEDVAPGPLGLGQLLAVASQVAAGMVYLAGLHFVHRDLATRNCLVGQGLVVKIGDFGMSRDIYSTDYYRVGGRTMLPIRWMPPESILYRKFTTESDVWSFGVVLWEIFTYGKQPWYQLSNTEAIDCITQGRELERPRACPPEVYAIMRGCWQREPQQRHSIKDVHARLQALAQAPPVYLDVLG

Structure (SMILES)	IC50 [nM]
COC(=O)c1cc2oc(-c3cnn4ccc(N5CCC[C@@H]5c5cc(F)ccc5F)nc34)nc2cc1OC [Compound 178, methyl (R)-2-(5-(2-(2,5-difluorophenyl)pyrrolidin-1-yl)pyrazolo[1,5-a]pyrimidin-3-yl)-5-methoxybenzo[d]oxazole-6-carboxylate]	≤ 10
Cc1cc2nc(-c3cnn4ccc(N5CCC[C@@H]5c5cc(F)ccc5F)nc34)oc2cc1OC(F)F [Compound 179, (R)-6-(difluoromethoxy)-2-(5-(2-(2,5-difluorophenyl)pyrrolidin-1-yl)pyrazolo[1,5-a]pyrimidin-3-yl)-5-methylbenzo[d]oxazole]	10 to 50
COc1cc2oc(-c3cnn4ccc(N5CCC[C@@H]5c5cc(F)ccc5F)nc34)nc2cc1CN1CCC[C@H]1C(=O)O [Compound 180, ((2-(5-((R)-2-(2,5-difluorophenyl)pyrrolidin-1-yl)pyrazolo[1,5-a]pyrimidin-3-yl)-6-methoxybenzo[d]oxazol-5-yl)methyl)-L-proline]	> 50
COc1cnc(OC)n2nc(-c3cnn4ccc(N5CCC[C@@H]5c5cc(F)ccc5F)nc34)nc12 [Compound 181, (R)-2-(5-(2-(2,5-difluorophenyl)pyrrolidin-1-yl)pyrazolo[1,5-a]pyrimidin-3-yl)-5,8-dimethoxy-[1,2,4]triazolo[1,5-c]pyrimidine]	10 to 50
COc1cc2nc(-c3cnn4ccc(N5CCC[C@@H]5c5cc(F)ccc5F)nc34)nn2cc1OC [Compound 182, (R)-2-(5-(2-(2,5-difluorophenyl)pyrrolidin-1-yl)pyrazolo[1,5-a]pyrimidin-3-yl)-6,7-dimethoxy-[1,2,4]triazolo[1,5-a]pyridine]	10 to 50
COC(=O)c1ccc2[nH]c(-c3cnn4ccc(N5CCC[C@@H]5c5cc(F)ccc5F)nc34)cc2c1 [Compound 184, methyl (R)-2-(5-(2-(2,5-difluorophenyl)pyrrolidin-1-yl)pyrazolo[1,5-a]pyrimidin-3-yl)-1H-indole-5-carboxylate]	≤ 10
O=C(O)c1ccc2[nH]c(-c3cnn4ccc(N5CCC[C@@H]5c5cc(F)ccc5F)nc34)cc2c1 [Compound 185, (R)-2-(5-(2-(2,5-difluorophenyl)pyrrolidin-1-yl)pyrazolo[1,5-a]pyrimidin-3-yl)-1H-indole-5-carboxylic acid]	≤ 10
Oc1ccc2cc(-c3cnn4ccc(N5CCC[C@@H]5c5cc(F)ccc5F)nc34)[nH]c2c1 [Compound 186, (R)-2-(5-(2-(2,5-difluorophenyl)pyrrolidin-1-yl)pyrazolo[1,5-a]pyrimidin-3-yl)-1H-indol-6-ol]	10 to 50
Fc1ccc(F)c([C@H]2CCCN2c2ccn3ncc(-c4nc5c([nH]4)COCC5)c3n2)c1 [Compound 188, (R)-2-(5-(2-(2,5-difluorophenyl)pyrrolidin-1-yl)pyrazolo[1,5-a]pyrimidin-3-yl)-3,4,6,7-tetrahydropyrano[3,4-d]imidazole]	≤ 10
Fc1ccc(F)c([C@H]2CCCN2c2ccn3ncc(-c4nc5c(s4)CCNC5)c3n2)c1 [Compound 189, (R)-2-(5-(2-(2,5-difluorophenyl)pyrrolidin-1-yl)pyrazolo[1,5-a]pyrimidin-3-yl)-4,5,6,7-tetrahydrothiazolo[4,5-c]pyridine]	≤ 10
Fc1ccc(F)c([C@H]2CCCN2c2ccn3ncc(-c4nc5c(s4)CNCC5)c3n2)c1 [Compound 190, (R)-2-(5-(2-(2,5-difluorophenyl)pyrrolidin-1-yl)pyrazolo[1,5-a]pyrimidin-3-yl)-4,5,6,7-tetrahydrothiazolo[5,4-c]pyridine]	≤ 10
NC(=O)N1CCc2nc(-c3cnn4ccc(N5CCC[C@@H]5c5cc(F)ccc5F)nc34)sc2C1 [Compound 191, (R)-2-(5-(2-(2,5-difluorophenyl)pyrrolidin-1-yl)pyrazolo[1,5-a]pyrimidin-3-yl)-6,7-dihydrothiazolo[5,4-c]pyridine-5(4H)-carboxamide]	10 to 50
Fc1ccc(F)c([C@H]2CCCN2c2ccn3ncc(-c4nc5c(s4)COCC5)c3n2)c1 [Compound 192, (R)-2-(5-(2-(2,5-difluorophenyl)pyrrolidin-1-yl)pyrazolo[1,5-a]pyrimidin-3-yl)-6,7-dihydro-4H-pyrano[4,3-d]thiazole]	10 to 50
COc1cc2nc(-c3c(N)nn4ccc(N5CCC[C@@H]5c5cc(F)ccc5F)nc34)[nH]c2cc1OC [Compound 193, (R)-5-(2-(2,5-difluorophenyl)pyrrolidin-1-yl)-3-(5,6-dimethoxy-1H-benzo[d]imidazol-2-yl)pyrazolo[1,5-a]pyrimidin-2-amine]	≤ 10
COc1cc2nc(-c3c(N)nn4ccc(N5CCC[C@@H]5c5cc(F)ccc5F)nc34)[nH]c2cc1C#N [Compound 194, (R)-2-(2-amino-5-(2-(2,5-difluorophenyl)pyrrolidin-1-yl)pyrazolo[1,5-a]pyrimidin-3-yl)-5-methoxy-1H-benzo[d]imidazole-6-carbonitrile]	≤ 10
COc1cc2[nH]c(-c3cnn4ccc(N5CCC[C@H]5c5cc(F)ccc5F)nc34)nc2cc1C#N [Compound 197, (S)-2-(5-(2-(2,5-difluorophenyl)pyrrolidin-1-yl)pyrazolo[1,5-a]pyrimidin-3-yl)-6-methoxy-1H-benzo[d]imidazole-5-carbonitrile]	10 to 50
COc1cc2[nH]c(-c3cnn4ccc(N5CCC[C@@H]5c5ccc(F)cc5)nc34)nc2cc1C#N [Compound 198, (R)-2-(5-(2-(4-fluorophenyl)pyrrolidin-1-yl)pyrazolo[1,5-a]pyrimidin-3-yl)-6-methoxy-1H-benzo[d]imidazole-5-carbonitrile]	> 50
COc1cc2nc(-c3cnn4ccc(N5CCC[C@@H]5c5cc(F)ccc5F)nc34)cn2cc1OC [Compound 199, (R)-5-(2-(2,5-difluorophenyl)pyrrolidin-1-yl)-3-(6,7-dimethoxyimidazo[1,2-a]pyridin-2-yl)pyrazolo[1,5-a]pyrimidine]	10 to 50
Fc1ccc(F)c([C@H]2CCCN2c2ccn3ncc(-c4nnc5n4CCOC5)c3n2)c1 [Compound 200, (R)-3-(5-(2-(2,5-difluorophenyl)pyrrolidin-1-yl)pyrazolo[1,5-a]pyrimidin-3-yl)-5,6-dihydro-8H-[1,2,4]triazolo[3,4-c][1,4]oxazine]	10 to 50

Same assay, conditions: numeric values; read-out: Trk A Kinase IC50

Structure (SMILES)	IC50 [nM]
Fc1ccc(F)c([C@H]2CCCN2c2ccn3ncc(-c4cc5ccc(F)cc5[nH]4)c3n2)c1 [Compound 183, (R)-5-(2-(2,5-difluorophenyl)pyrrolidin-1-yl)-3-(6-fluoro-1H-indol-2-yl)pyrazolo[1,5-a]pyrimidine]	20.4
O[C@H]1CCn2nc(-c3cnn4ccc(N5CCC[C@@H]5c5cc(F)ccc5F)nc34)nc2C1 [Compound 187, (S)-2-(5-((R)-2-(2,5-difluorophenyl)pyrrolidin-1-yl)pyrazolo[1,5-a]pyrimidin-3-yl)-5,6,7,8-tetrahydro-[1,2,4]triazolo[1,5-a]pyridin-7-ol]	6.6
COc1cc2[nH]c(-c3cnn4ccc(N5CCC[C@@H]5c5ccccc5F)nc34)nc2cc1C#N [Compound 195, (R)-2-(5-(2-(2-fluorophenyl)pyrrolidin-1-yl)pyrazolo[1,5-a]pyrimidin-3-yl)-6-methoxy-1H-benzo[d]imidazole-5-carbonitrile]	2.3
COc1cc2[nH]c(-c3cnn4ccc(N5CCC[C@@H]5c5cccc(F)c5)nc34)nc2cc1C#N [Compound 196, (R)-2-(5-(2-(3-fluorophenyl)pyrrolidin-1-yl)pyrazolo[1,5-a]pyrimidin-3-yl)-6-methoxy-1H-benzo[d]imidazole-5-carbonitrile]	2.6
